Measurements as given in article PMC6412019, “Discovery of NV-5138, the first selective Brain mTORC1 activator” (Scientific Reports, 2019).

Test system: HeLa cells
Assay: 14C-leucine protein incorporation assay in HeLa cells
Assay type: cell-based, human
Details: 30 min labeling, CHX 10 ug/ml
Method: Since NV-5138 is an amino acid, we performed two different experiments to rule out any potential liabilities that could arise from the incorporation of NV-5138 into proteins. We first determined whether NV-5138 substitutes for any branched-chain amino acid or methionine into newly synthesized proteins using liquid chromatography followed by tandem mass spectroscopy (LC-MS/MS). NV-5138 (100 µM) or vehicle was incubated with serum and leucine-starved 293T cells for 6 hours followed by proteomic analysis by mass spectrometry.
After incubation, cells were harvested and lysed in Tris/HCl 10 mM pH 7.4 plus 1% NP40. Lysate were mixed with water and 20% trichloroacetic acid (1:1:2) and incubated on ice for 2 h to precipitate the protein. Proteins were collected by centrifugation, solubilized in NaOH, placed in scintillation fluid and read on a Wallac Microbeta Trilux 2450 with a 2-min count. Scintillation values were normalized as the percentage of the counts from the DMSO-treated wells.

`C[C@@H]1C[C@@H]([C@H](O)CC2CC(=O)NC(=O)C2)C(=O)[C@@H](C)C1` [cyclohexamide, reference compound] was tested, and the “effect on incorporation of 14C-leucine into precipitated proteins” value was “blocked incorporation”.
